Residues, ends and D or L forms follow the SMILES beside them.
Tests used:
[1] = Inhibition of human FXIIa
Homo sapiens = species: Homo sapiens; experiment: Anticoagulant activity in human plasma assessed as prolongation of activated partial thromboplastin time by measuring concentration required to double aPTT; assay type: functional
[2] = Inhibition of FXIIa (unknown origin) using Ac-QRFR-pNA as substrate measured at 30 sec interval by microplate reader assay; set-up: species or system Homo sapiens
[3] = Stability of compound in human serum at 50 uM incubated for 24 hrs by reversed phase HPLC analysis; assay type: ADME, cell-free
[4] = Inhibition of human cationic trypsin using Boc-VPR-MCA as susbtrate
Plasminogen = Plasminogen (Homo sapiens, UniProt P00747); experiment: Inhibition of human plasmin using Ac-RM(O2)YR-pNA as substrate
[5] = Inhibition of human FXa using Z-Pyr-GR-MCA as substrate
[6] = Inhibition of human FXIa using Boc-Glu(OBzl)-AR-MCA as substrate
[7] = Inhibition of human beta-FIXa using Boc-QGR-MCA as substrate
Plasma kallikrein = Plasma kallikrein (Homo sapiens, UniProt P03952); experiment: Inhibition of human plasma kallikrein using Z-FR-MCA as substrate; assay type: cell-free
[8] = target: T1, Suppressor of tumorigenicity 14 protein (Homo sapiens, UniProt Q9Y5Y6); experiment: Inhibition of recombinant human matriptase using Boc-QAR-MCA as substrate
T1 sequence (Q9Y5Y6 whole entry): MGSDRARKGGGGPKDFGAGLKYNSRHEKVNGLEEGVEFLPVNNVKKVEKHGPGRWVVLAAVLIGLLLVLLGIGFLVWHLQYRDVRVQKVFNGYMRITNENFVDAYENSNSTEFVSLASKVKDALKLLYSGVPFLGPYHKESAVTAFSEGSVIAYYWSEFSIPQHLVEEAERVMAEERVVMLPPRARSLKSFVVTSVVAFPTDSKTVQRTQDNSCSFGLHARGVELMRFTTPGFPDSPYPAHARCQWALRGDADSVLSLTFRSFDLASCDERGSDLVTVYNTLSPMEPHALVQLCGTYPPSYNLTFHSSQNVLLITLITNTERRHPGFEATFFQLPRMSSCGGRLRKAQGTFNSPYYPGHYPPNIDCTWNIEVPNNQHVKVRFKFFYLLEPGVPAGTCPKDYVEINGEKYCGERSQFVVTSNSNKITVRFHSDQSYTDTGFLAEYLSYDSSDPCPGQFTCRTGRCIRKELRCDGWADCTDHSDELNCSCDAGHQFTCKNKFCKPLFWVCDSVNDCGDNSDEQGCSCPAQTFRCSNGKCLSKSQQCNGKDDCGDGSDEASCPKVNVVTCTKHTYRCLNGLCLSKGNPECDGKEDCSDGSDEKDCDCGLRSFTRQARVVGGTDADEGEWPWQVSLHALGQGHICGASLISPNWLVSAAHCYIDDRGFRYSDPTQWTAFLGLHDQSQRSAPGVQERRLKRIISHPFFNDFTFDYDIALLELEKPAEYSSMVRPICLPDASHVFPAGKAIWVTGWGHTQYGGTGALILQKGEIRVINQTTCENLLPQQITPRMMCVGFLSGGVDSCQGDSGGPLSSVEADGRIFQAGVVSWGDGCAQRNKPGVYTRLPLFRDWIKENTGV

[9] = Stability of compound in human serum at 50 uM incubated for 8 hrs by reversed phase HPLC analysis; assay type: ADME, cell-free; settings: read-out: Stability

Chain of Plasma kallikrein (P03952 20-390 limits assumed): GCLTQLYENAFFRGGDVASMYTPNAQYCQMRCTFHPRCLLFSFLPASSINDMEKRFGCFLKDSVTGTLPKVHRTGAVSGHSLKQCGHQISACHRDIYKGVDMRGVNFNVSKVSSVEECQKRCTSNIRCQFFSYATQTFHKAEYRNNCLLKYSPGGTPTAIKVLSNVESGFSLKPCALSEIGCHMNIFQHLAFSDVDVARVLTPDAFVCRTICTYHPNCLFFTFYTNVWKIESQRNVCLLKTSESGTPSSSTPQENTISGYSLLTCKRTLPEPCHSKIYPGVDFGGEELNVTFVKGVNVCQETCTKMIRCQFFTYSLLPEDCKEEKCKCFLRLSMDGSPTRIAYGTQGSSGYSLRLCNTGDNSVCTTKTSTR
Chain of Plasma kallikrein (P03952 391-638 limits assumed): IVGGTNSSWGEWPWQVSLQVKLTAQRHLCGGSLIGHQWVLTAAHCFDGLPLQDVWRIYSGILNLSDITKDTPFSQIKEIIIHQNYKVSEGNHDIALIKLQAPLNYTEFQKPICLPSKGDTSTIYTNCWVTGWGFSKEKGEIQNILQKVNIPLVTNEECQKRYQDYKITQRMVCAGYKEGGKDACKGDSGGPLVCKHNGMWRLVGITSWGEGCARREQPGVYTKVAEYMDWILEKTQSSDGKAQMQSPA
Chain of Plasminogen (P00747 97-580 limits assumed): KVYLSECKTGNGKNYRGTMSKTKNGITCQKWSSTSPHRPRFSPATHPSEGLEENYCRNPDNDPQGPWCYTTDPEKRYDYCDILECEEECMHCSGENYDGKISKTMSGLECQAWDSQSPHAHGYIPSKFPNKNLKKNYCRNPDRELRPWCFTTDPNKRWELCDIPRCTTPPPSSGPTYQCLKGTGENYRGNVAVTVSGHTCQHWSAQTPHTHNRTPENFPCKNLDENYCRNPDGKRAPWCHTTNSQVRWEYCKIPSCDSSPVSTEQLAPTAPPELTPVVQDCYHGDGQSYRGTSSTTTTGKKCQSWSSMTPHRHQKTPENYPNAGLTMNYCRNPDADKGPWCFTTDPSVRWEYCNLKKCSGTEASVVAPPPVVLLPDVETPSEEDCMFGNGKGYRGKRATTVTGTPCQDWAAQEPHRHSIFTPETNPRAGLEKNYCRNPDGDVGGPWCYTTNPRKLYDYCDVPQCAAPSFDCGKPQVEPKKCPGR
Chain of Plasminogen (P00747 581-810 limits assumed): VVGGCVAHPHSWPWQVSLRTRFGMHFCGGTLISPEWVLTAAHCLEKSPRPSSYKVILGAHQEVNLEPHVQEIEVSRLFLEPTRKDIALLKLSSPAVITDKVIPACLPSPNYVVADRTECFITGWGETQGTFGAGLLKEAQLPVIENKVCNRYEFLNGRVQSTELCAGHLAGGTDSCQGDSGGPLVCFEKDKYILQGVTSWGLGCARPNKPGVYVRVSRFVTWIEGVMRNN

Compound	Ki [2]	Stability [3]	IC50 [5]	IC50 [6]	IC50 [7]	IC50 (Plasma kallikrein)	Ki [8]	also measured
CC(C)C[C@@H]1NC(=O)[C@H](CCC(N)=O)NC(=O)[C@H](Cc2c[nH]cn2)NC(=O)[C@@H]2CSCCC(=O)N3CN(CN(C3)C(=O)CCSC[C@H](NC(=O)[C@@H](CO)NC(=O)[C@H](N)CCCNC(=N)N)C(=O)N[C@@H](Cc3ccc(F)cc3)C(=O)N[C@@H](CCCNC(=N)N)C(=O)N[C@@H](CC(C)C)C(=O)N3CCC[C@H]3C(=O)N2)C(=O)CCSC[C@@H](C(=O)O)NC(=O)C[C@H](CCCNC(=N)N)NC1=O	–	–	–	–	–	–	–	Ki [1]: 0.37 nM
CC[C@H](C)[C@@H]1NC(=O)[C@H](CCCNC(=N)N)NC(=O)[C@H](Cc2ccccc2)NC(=O)[C@@H](NC(=O)[C@H](CCCNC(=N)N)NC(=O)CNC(=O)CN)CSSC[C@@H]2NC(=O)[C@H](C)NC(=O)CNC(=O)[C@@H]3CCCN3C(=O)[C@@H]3CSSC[C@@H](C(=O)NCC(=O)N[C@@H](CO)C(=O)O)NC(=O)[C@H](Cc4ccc(O)cc4)NC(=O)CNC(=O)[C@H](CC(N)=O)NC(=O)CNC(=O)[C@H](CCCNC(=N)N)NC(=O)[C@H](CSSC[C@H](NC(=O)[C@H](CCCCN)NC(=O)[C@H](CCCCN)NC(=O)CNC1=O)C(=O)N[C@@H](CCCNC(=N)N)C(=O)N[C@@H](CCCNC(=N)N)C(=O)N[C@@H](CC(=O)O)C(=O)N[C@@H](CO)C(=O)N[C@@H](CC(=O)O)C(=O)N3)NC(=O)[C@H]([C@@H](C)CC)NC2=O (HELM PEPTIDE1{G.G.R.C.F.R.I.G.K.K.C.R.R.D.S.D.C.P.G.A.C.I.C.R.G.N.G.Y.C.G.S}$PEPTIDE1,PEPTIDE1,4:R3-21:R3|PEPTIDE1,PEPTIDE1,11:R3-23:R3|PEPTIDE1,PEPTIDE1,17:R3-29:R3$$$V2.0) [listing 1 of 2 here]	–	–	–	–	–	–	–	Activity (Homo sapiens): 2.5 µM
CC[C@H](C)[C@@H]1NC(=O)[C@@H]2CSSC[C@@H]3NC(=O)[C@H](CCC(N)=O)NC(=O)CNC(=O)CNC(=O)[C@H](CC(=O)O)NC(=O)[C@H](CO)NC(=O)CNC(=O)[C@H](CO)NC(=O)CNC(=O)[C@@H]4CSSC[C@H](NC(=O)[C@H](CC(=O)O)NC(=O)[C@H](CO)NC(=O)[C@H](CC(=O)O)NC(=O)[C@H](CCCNC(=N)N)NC(=O)[C@H](CCCNC(=N)N)NC(=O)[C@H](CSSC[C@H](NC1=O)C(=O)N[C@@H](CCCNC(=N)N)C(=O)NCC(=O)N[C@@H](CC(N)=O)C(=O)NCC(=O)N[C@@H](Cc1ccc(O)cc1)C(=O)N4)NC(=O)[C@H](CCCCN)NC(=O)[C@H](CCCCN)NC(=O)[C@H](CC(C)C)NC(=O)[C@H]([C@@H](C)CC)NC(=O)[C@H](CCCNC(=N)N)NC(=O)[C@H](Cc1ccccc1)NC3=O)C(=O)N1CCC[C@H]1C(=O)NCC(=O)N[C@@H](C)C(=O)N2 (HELM PEPTIDE1{A.C.I.C.R.G.N.G.Y.C.G.S.G.S.D.G.G.Q.C.F.R.I.L.K.K.C.R.R.D.S.D.C.P.G}$PEPTIDE1,PEPTIDE1,2:R3-19:R3|PEPTIDE1,PEPTIDE1,4:R3-26:R3|PEPTIDE1,PEPTIDE1,10:R3-32:R3|PEPTIDE1,PEPTIDE1,1:R1-34:R2$$$V2.0)	193 nM	Stable	–	–	–	–	–	–
CC[C@H](C)[C@@H]1NC(=O)[C@H](CCCNC(=N)N)NC(=O)[C@H](Cc2ccccc2)NC(=O)[C@@H](NC(=O)[C@H](CCCNC(=N)N)NC(=O)CNC(=O)CN)CSSC[C@@H]2NC(=O)[C@H](C)NC(=O)CNC(=O)[C@@H]3CCCN3C(=O)[C@@H]3CSSC[C@@H](C(=O)NCC(=O)N[C@@H](CO)C(=O)O)NC(=O)[C@H](Cc4ccc(O)cc4)NC(=O)CNC(=O)[C@H](CC(N)=O)NC(=O)CNC(=O)[C@H](CCCNC(=N)N)NC(=O)[C@H](CSSC[C@H](NC(=O)[C@H](CCCCN)NC(=O)[C@H](CCCCN)NC(=O)CNC1=O)C(=O)N[C@@H](CCCNC(=N)N)C(=O)N[C@@H](CCCNC(=N)N)C(=O)N[C@@H](CC(=O)O)C(=O)N[C@@H](CO)C(=O)N[C@@H](CC(=O)O)C(=O)N3)NC(=O)[C@H]([C@@H](C)CC)NC2=O (HELM PEPTIDE1{G.G.R.C.F.R.I.G.K.K.C.R.R.D.S.D.C.P.G.A.C.I.C.R.G.N.G.Y.C.G.S}$PEPTIDE1,PEPTIDE1,4:R3-21:R3|PEPTIDE1,PEPTIDE1,11:R3-23:R3|PEPTIDE1,PEPTIDE1,17:R3-29:R3$$$V2.0) [listing 2 of 2 here]	2 nM	Stable	> 5000 nM	> 5000 nM	> 5000 nM	> 5000 nM	1430 nM	IC50 [4]: > 5000 nM; IC50 (Plasminogen): > 5000 nM; remaining at 8 h, 50 µM [9]: 100%
CC[C@H](C)[C@@H]1NC(=O)[C@@H]2CSSC[C@H](NC(=O)[C@H](CCCNC(=N)N)NC(=O)CNC(=O)CN)C(=O)N[C@@H](Cc3ccccc3)C(=O)N[C@@H](CCCNC(=N)N)C(=O)N[C@@H]([C@@H](C)CC)C(=O)N[C@@H](CC(C)C)C(=O)N[C@@H](CCCCN)C(=O)N[C@@H](CCCCN)C(=O)N[C@H]3CSSC[C@H](NC1=O)C(=O)N[C@@H](CCCNC(=N)N)C(=O)NCC(=O)N[C@@H](CC(N)=O)C(=O)NCC(=O)N[C@@H](Cc1ccc(O)cc1)C(=O)N[C@H](C(=O)NCC(=O)N[C@@H](CO)C(=O)O)CSSC[C@H](NC(=O)[C@H](CC(=O)O)NC(=O)[C@H](CO)NC(=O)[C@H](CC(=O)O)NC(=O)[C@H](CCCNC(=N)N)NC(=O)[C@H](CCCNC(=N)N)NC3=O)C(=O)N1CCC[C@H]1C(=O)NCC(=O)N[C@@H](C)C(=O)N2 (HELM PEPTIDE1{G.G.R.C.F.R.I.L.K.K.C.R.R.D.S.D.C.P.G.A.C.I.C.R.G.N.G.Y.C.G.S}$PEPTIDE1,PEPTIDE1,4:R3-21:R3|PEPTIDE1,PEPTIDE1,11:R3-23:R3|PEPTIDE1,PEPTIDE1,17:R3-29:R3$$$V2.0)	3 nM	–	> 5000 nM	> 5000 nM	> 5000 nM	> 5000 nM	30 nM	Ki [4]: 275 nM; Ki (Plasminogen): 86 nM
